# Laboratory results as given in ChEMBL document CHEMBL2073992, “Polarized transport of docetaxel and vinblastine mediated by P-glycoprotein in human intestinal epithelial cell monolayers” (Biochem Pharmacol, 1994).
# Molecular target: ATP-dependent translocase ABCB1 (Homo sapiens, UniProt P08183)
# Experiment: TP_TRANSPORTER: transepithelial transport (basal to apical) in Caco-2 cells
# Format: functional, cell-based
# ATP-dependent translocase ABCB1, sequence (P08183 whole entry): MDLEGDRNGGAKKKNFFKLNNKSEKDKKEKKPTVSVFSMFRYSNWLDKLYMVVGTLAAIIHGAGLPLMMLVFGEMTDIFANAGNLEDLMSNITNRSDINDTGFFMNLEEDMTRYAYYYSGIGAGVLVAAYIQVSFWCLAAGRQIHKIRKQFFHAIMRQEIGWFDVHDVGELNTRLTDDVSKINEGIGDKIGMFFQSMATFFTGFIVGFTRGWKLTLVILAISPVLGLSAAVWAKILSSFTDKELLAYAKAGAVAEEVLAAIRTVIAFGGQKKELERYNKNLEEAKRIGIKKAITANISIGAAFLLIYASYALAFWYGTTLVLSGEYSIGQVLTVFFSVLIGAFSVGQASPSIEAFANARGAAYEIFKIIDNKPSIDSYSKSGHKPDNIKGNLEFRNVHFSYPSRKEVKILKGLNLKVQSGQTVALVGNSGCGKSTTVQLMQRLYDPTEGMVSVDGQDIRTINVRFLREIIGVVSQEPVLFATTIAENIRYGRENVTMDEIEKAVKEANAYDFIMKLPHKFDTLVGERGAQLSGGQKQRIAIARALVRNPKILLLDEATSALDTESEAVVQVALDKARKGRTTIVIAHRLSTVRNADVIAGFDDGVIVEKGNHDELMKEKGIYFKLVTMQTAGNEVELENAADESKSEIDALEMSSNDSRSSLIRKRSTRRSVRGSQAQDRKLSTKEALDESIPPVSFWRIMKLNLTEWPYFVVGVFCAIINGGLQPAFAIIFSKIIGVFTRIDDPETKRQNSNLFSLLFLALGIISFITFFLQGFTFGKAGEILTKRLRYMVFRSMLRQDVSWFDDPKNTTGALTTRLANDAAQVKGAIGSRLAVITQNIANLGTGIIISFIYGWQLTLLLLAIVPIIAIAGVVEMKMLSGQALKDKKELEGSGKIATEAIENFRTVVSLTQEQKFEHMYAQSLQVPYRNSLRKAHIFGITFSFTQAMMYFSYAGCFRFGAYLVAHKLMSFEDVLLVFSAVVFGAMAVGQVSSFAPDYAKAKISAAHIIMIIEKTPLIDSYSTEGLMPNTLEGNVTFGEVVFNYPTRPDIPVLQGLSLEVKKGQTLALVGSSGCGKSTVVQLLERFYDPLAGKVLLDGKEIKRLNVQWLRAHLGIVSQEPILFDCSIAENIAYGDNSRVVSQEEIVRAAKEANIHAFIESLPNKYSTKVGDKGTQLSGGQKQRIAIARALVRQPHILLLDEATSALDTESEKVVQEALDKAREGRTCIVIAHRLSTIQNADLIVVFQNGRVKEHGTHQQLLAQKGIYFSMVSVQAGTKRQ
smiles,measurement,value
CC(=O)O[C@@]12CO[C@@H]1C[C@H](O)[C@@]1(C)C(=O)[C@H](O)C3=C(C)[C@@H](OC(=O)[C@H](O)[C@@H](NC(=O)OC(C)(C)C)c4ccccc4)C[C@@](O)([C@@H](OC(=O)c4ccccc4)[C@H]21)C3(C)C.O.O.O [DOCETAXEL],Activity,substrate [+]
